Data taken from US20130203846A1, “PHENYL CARBAMATE COMPOUNDS FOR USE IN PREVENTING OR TREATING ALS” (Bio-Pharm Solutions Co., Ltd., priority 2011, published 2013).
Marks after values point to notes of the source that are not given here.

Tests used:
Assay type in all cases: in vivo, mouse
male ICR mice = assay: MES (maximal electroshock seizure) test, mice; conditions: for ED50: Mus musculus, oral, at peak time
Method: The obtained results are shown as mean±sem. The difference between the groups was statistically analyzed by ANOVA, and then, further examined by Dunnett's test or Bonferroni test. If p is less than 0.05, it was determined that the difference between the groups had statistical significance.

[1] = system: mice expressing mutated human SOD1-G93A transgene; assay: Survival of ALS transgenic mice; conditions: TG G93A SOD1 mice
[2] = system: mice expressing mutated human SOD1-G93A transgene; assay: Body weight of ALS transgenic mice; conditions: TG G93A SOD1 mice; 3, 10, 50 mg/kg p.o. once a day; compared with WT group
From the text: (§1) Altogether 80 male and female mice expressing mutated human SOD1-G93A transgene (heterozygous TgN-SOD1-G93A-1Gur; Gurney et al. (1994), Science 264, 1772. 1775) and 15 of their wild type littermates were used for the experiments. […] PCR was used to genotype the mice before the start of the experiments. […]
Since weight loss has proven to correlate well with disease development and is easily scored co-jointly with disease stage, the mice were weighted once-a-week at the age of 60 days to 90 days and three times a week after they reach the age of 91 days (13 weeks).

[3] = system: mice expressing mutated human SOD1-G93A transgene; assay: Clinical scoring and disease onset of ALS transgenic mice; conditions: TG G93A SOD1 mice
From the text: Altogether 80 male and female mice expressing mutated human SOD1-G93A transgene (heterozygous TgN-SOD1-G93A-1Gur; Gurney et al. (1994), Science 264, 1772. 1775) and 15 of their wild type littermates were used for the experiments. […] PCR was used to genotype the mice before the start of the experiments.
The animals were grouped as follows: • <Non-transgenic male mice> • Group 1: 15 WT mice treated with vehicle (30% (w/v) polyethyleneclycol 400 (PEG400), once a day, p.o.) starting at 60 days of age and continuing until end-point • <Transgenic G93A SOD1 male mice: ALS-transgenic mice> • Group 2: 20 transgenic mice treated with vehicle (30% (w/v) polyethyleneclycol 400 (PEG400), once a day, p.o.) staring at 60 days of age and continuing until end-point • Group 3: 20 transgenic mice treated with a drug (Compound 1) at dose of 3 mg/kg (once a day, p.o.) staring at 60 days of age and continuing until end-point • Group 4: 20 transgenic mice treated with Compound 1 at dose of 10 mg/kg (once a day, p.o.) staring at 60 days of age and continuing until end-point • Group 5: 20 transgenic mice treated with Compound 1 at dose of 50 mg/kg (once a day, p.o.) staring at 60 days of age and continuing until end-point
Treatment with drug (Compound 1) was started at the age of 60 days and continued until the mice reached 150 days of age. The drug was administered p.o. once a day between 8-12 am. The drug solubilized in 30% (w/v) polyethyleneclycol 400 (PEG400), and the obtained solution was briefly vortexed and sonicated at RT (room temperature) for 20 minutes. Treatment solution of the drug was prepared fresh every day. […]
The earliest clinical signs were tremor and shaking of their limbs when the mice are suspended briefly in the air by their tails. […] Animals were scored by lifting them gently by the base of their tails and observing them for tremors, stiffness and their ability to extend their limbs. […]
Onset of disease for each mouse was recorded when they reach a disease stage 4.

[4] = system: mice expressing mutated human SOD1-G93A transgene; assay: Open field test of ALS transgenic mice; conditions: TG G93A SOD1 mice; 3, 10, 50 mg/kg p.o. once a day; baseline, day 90, day 110
Method: as §1
Open field test measurements were performed before the dosing is stated (baseline) and around day 90 (13th age week) and day 110 (16th age week). […] Mice were placed in the center of the chamber and their behaviors were recorded for 10 minutes. The following parameters were recorded: distance moved.

male mice (ICR) [5] = assay: Muscle relaxation: wire hang test; conditions: i.p., 100 mg/kg administered
Method: (§2) For testing, male mice (ICR) were purchased from ORIENT BIO INC. (Korea), divided into several groups with 6 mice in each group, and were adapted for 4-5 days. The mice having the weight ranging from 19 g to 26 g were employed for the test. The pharmacological effect of the test compounds on muscle relaxation was evaluated by Rotarod test, grip strength test, and muscular force (wire hang) test. All mice were adapted to the test environment at one hour before starting the tests. The pharmacological effects of all the test compounds were evaluated by administration through peritoneal cavity of the mice (10 ul/g, bw).
This experimentation was conducted using a metal wire of 30 cm in length, which was suspended between two pillars at a height of about 40 cm from the bottom covered with a soft pad. […] Each mouse was made to grip the wire using two forelimbs, and the elapse time before the mouse fell off from the wire to the pad on the bottom was recorded in seconds. Each mouse was given 5 opportunities for this test at an interval of 2 minutes period. The highest 3 records among the test opportunities were selected and the mean value was used as the test result. […]
(§3) The results of muscle relaxation activity of the phenyl carbamate compounds measured in above Experimental Examples 1.2 to 1.4 are shown in following Table 3.

male mice (ICR) [6] = assay: Muscle relaxation: grip strength test (forelimbs); conditions: i.p., 120 mg/kg administered
Method: as §2
A grip strength test using the test animals' forelimbs was performed using an instrument equipped with triangle ring and designed so as to easily grip with the forelimbs of experimental animals, manufactured from Ugo Basile Inc. (Ugo Basile, Mode147106, Italy). […] The mouse was made to grip the rod with its forelimbs, and its tail was pulled, where the force at which the mouse detached from the rod was recorded. […] This experimentation was conducted according to the method described in the reference, ‘Nevins et al. (1993) Quantitative grip strength assessment as a means of evaluating muscle relaxation in mice. […]
as §3

[7] = group treated with 10 mg/kg p.o. once a day

Structure (SMILES)	MES test (po) Peak Time (male ICR mice)	ED50 (male ICR mice)	other results
CC(OC(N)=O)C(O)c1ccccc1Cl (racemic) [Compound 3, 1-(2-chlorophenyl)-1-hydroxypropyl-2-carbamate]	2 h	–	–
C[C@H](OC(N)=O)[C@@H](O)c1ccccc1Cl [Compound 1, 1-(2-chlorophenyl)-(S)-1-hydroxypropyl-(S)-2-carbamate]	2 h	–	rate (%) of survivor according to survival time (FIG. 1) ([1]; 3, 10, 50 mg/kg p.o. once a day from 60 days of age, early stage of ALS): survival time is extended; effect to increase the survival rate at early stage of ALS (FIG. 1) [1, 7]: especially remarkable; body weight of each group (FIG. 3) [2]: body weight loss compared with WT group was decrease by administration of the drug in the dose-dependent manner; rate (%) of survivor according to disease onset time (FIG. 2) ([3]; 3, 10, 50 mg/kg p.o. once a day, onset = disease stage 4): delay the disease onset; clinical score of each group (FIG. 4) ([3]; 3, 10, 50 mg/kg p.o. once a day, scale 1 to 5, compared to TG vehicle group): clinical scores were increased by administration of the drug in the dose-dependent manner; effect to delay the disease onset (FIG. 2) [3, 7]: especially remarkable; distance moved, open field test (FIG. 5) [4]: some differences between treatments group of transgenic mice
C[C@@H](OC(N)=O)[C@H](O)c1ccccc1Cl [Compound 2, 1-(2-chlorophenyl)-(R)-1-hydroxypropyl-(R)-2-carbamate]	0.25 h	–	–
C[C@H](OC(N)=O)[C@H](O)c1ccccc1Cl [Compound 5, 1-(2-chlorophenyl)-(R)-1-hydroxypropyl-(S)-2-carbamate]	0.5 h	–	–
CC[C@H](OC(N)=O)[C@@H](O)c1ccccc1Cl [Compound 6, 1-(2-chlorophenyl)-(S)-1-hydroxybutyl-(S)-2-carbamate]	1 h	22.2 mg/kg	–
CC(C)[C@H](OC(N)=O)[C@@H](O)c1ccccc1Cl [Compound 9, 1-(2-chlorophenyl)-(S)-1-hydroxy-3-methyl-butyl-(S)-2-carbamate]	0.5 h	67.1 mg/kg	–
C[C@H](OC(N)=O)[C@@H](O)c1ccc(Cl)cc1Cl [Compound 36, 1-(2,4-dichlorophenyl)-(S)-1-hydroxypropyl-(S)-2-carbamate]	–	82.8 mg/kg	–
C[C@H](OC(N)=O)[C@@H](O)c1c(Cl)cccc1Cl [Compound 37, 1-(2,6-dichlorophenyl)-(S)-1-hydroxypropyl-(S)-2-carbamate]	0.25 h	–	–
C[C@H](OC(N)=O)[C@@H](O)c1cccc(Cl)c1Cl [Compound 38, 1-(2,3-dichlorophenyl)-(S)-1-hydroxypropyl-(S)-2-carbamate]	2 h	91.4 mg/kg	–
CC[C@H](OC(N)=O)[C@@H](O)c1ccc(Cl)cc1Cl [Compound 39, 1-(2,4-dichlorophenyl)-(S)-1-hydroxybutyl-(S)-2-carbamate]	1 h	41.2 mg/kg	–
CC[C@H](OC(N)=O)[C@@H](O)c1c(Cl)cccc1Cl [Compound 40, 1-(2,6-dichlorophenyl)-(S)-1-hydroxybutyl-(S)-2-carbamate]	–	46.9 mg/kg	–
CC(C)[C@H](OC(N)=O)[C@@H](O)c1c(Cl)cccc1Cl [Compound 42, 1-(2,6-dichlorophenyl)-(S)-1-hydroxy-3-methyl-butyl-(S)-2-carbamate]	0.5 h	35.2 mg/kg	–
C[C@@H](OC(N)=O)[C@H](O)c1c(Cl)cccc1Cl [Compound 46, 1-(2,6-dichlorophenyl)-(R)-1-hydroxypropyl-(R)-2-carbamate]	1 h	35.2 mg/kg	–
C[C@@H](OC(N)=O)[C@H](O)c1ccccc1F [Compound 64, 1-(2-fluorophenyl)-(R)-1-hydroxypropyl-(R)-2-carbamate]	–	–	Wire hang: effect (%) compared to that of control treated with vehicle only (male mice (ICR) [5]): 100 ^a (30.8%); Grip strength: effect (%) compared to that of control treated with vehicle only (male mice (ICR) [6]): 120 ^a (35.4%)
